Data on ten molecules can be found in ChEMBL document CHEMBL1201862, “PubChem BioAssay data set” (2004).

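Tested at 5 concentrations; 48 h exposure; 96-well plates; endpoints linearly interpolated, else capped at highest concentration. Here, GI50 denotes the concentration required for 50% inhibition of growth.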 The source made the active and inactive calls. Cut-off read from the data, not from the text of the source: active = GI50 up to about 1.1 µM and inactive = higher.

What all share (assay): inhibition of tumour cell growth, NCI panel, 48 h
Assay [1] relates to 786-0.
The test system of assay [2] is A549.
The subject of assay [3] is DU-145.
Assay [4] deals with EKVX.
The test system of assay [5] is HL-60.
In assay [6] the test system is Hs-578T.
Assay [7] has as its system IGROV-1.
The test system of assay [8] is KM12.
Assay [9] relates to LOX IMVI.
Assay [10] deals with MCF7.
In assay [11] the test system is NCI/ADR-RES.
Assay [12] relates to OVCAR-5.
The subject of assay [13] is RXF 393.
Assay [14] relates to SK-MEL-2.
The test system of assay [15] is SK-MEL-5.
The test system of assay [16] is SK-OV-3.
Assay [17] concerns SNB-19.
Assay [18] deals with SR.
In assay [19] the test system is T47D.
Assay [20] deals with UACC-62.

With `N=c1c2c(=S)n(-c3ccccc3)c(=S)n(-c3ccccc3)c2nc(SCCCN2CCCCC2)n1-c1ccccc1`, the GI50 in assay [1] was 1.09 µM (active); in assay [2], 1.83 µM (inactive); in assay [3] it was 1.66 µM (inactive); in [4] it was 1.98 µM (inactive); in assay [5], 1.81 µM (inactive); in assay [6] it was 2.79 µM (inactive). For the same molecule, the GI50 in assay [7] is 1.5 µM (inactive); in [8], 1.82 µM (inactive); in [9], 0.91 µM (active); in assay [10] it was 0.329 µM (active); in assay [11], 2.91 µM (inactive); in assay [12] it was 11.5 µM (inactive). The GI50 was 1.64 µM (inactive) in [13]; 1.94 µM (inactive) in [14]; 1.86 µM (inactive) in assay [15]; 2.26 µM (inactive) in assay [16]; 2.91 µM (inactive) in assay [17]; 0.558 µM (active) in assay [18]. The GI50 was 2.14 µM (inactive) in [19] and 1.64 µM (inactive) in assay [20].
As to `S=C1N=C2C(=N1)n1c3c(c4ccccc41)CCCC23` (stereo not given), the GI50 in [1] was 15.5 µM (inactive); in assay [2], 29.2 µM (inactive); in [3], > 100 µM (inactive); in assay [4], > 100 µM (inactive); in assay [5], 55.8 µM (inactive); in assay [6] it was 44.1 µM (inactive). Besides, the GI50 in assay [7] was 32.6 µM (inactive); in assay [8] it was 49.2 µM (inactive); in assay [9], 14.6 µM (inactive); in assay [10], 24 µM (inactive); in assay [11], 62.4 µM (inactive); in [12] it was > 100 µM (inactive). Further, the GI50 in assay [13] was > 100 µM (inactive); in assay [14], > 100 µM (inactive); in assay [15], 36.8 µM (inactive); in assay [16], > 100 µM (inactive); in assay [17] it was 56.8 µM (inactive); in assay [18], 72.4 µM (inactive). The GI50 in assay [19] is 26 µM (inactive); in assay [20], 59.2 µM (inactive).
With `COC(=O)OC[C@H]1O[C@@H](n2cc(C)c(=O)[nH]c2=O)CC1OC(=O)OC` (stereo not given in full), the GI50 in assay [1], in [2], in [3], in [4], in [5] and in assay [6] was > 100 µM (inactive) throughout. For the same molecule, the GI50 in assay [7], in assay [8], in assay [9], in [10], in [11] and in assay [12] was > 100 µM (inactive) in each case. The GI50 in assay [13] was > 100 µM (inactive); in assay [14] it was > 100 µM (inactive); in assay [15] it was > 100 µM (inactive); in assay [16], > 100 µM (inactive); in assay [17] it was > 100 µM (inactive); in [18] it was 61.7 µM (inactive). The GI50 in [19] and in assay [20] was > 100 µM (inactive) in each case.
As to `ClCCCSSCCCCl`, the GI50 in assay [1] was 30.2 µM (inactive); in assay [2], 38.6 µM (inactive); in [3] it was 43.1 µM (inactive); in assay [4] it was 74 µM (inactive); in assay [5], 3.86 µM (inactive); in [6], 17.8 µM (inactive). The GI50 in assay [7] is 33 µM (inactive); in [8] it was 32.3 µM (inactive); in assay [9], 27.2 µM (inactive); in assay [10], 30.3 µM (inactive); in assay [11] it was 34.4 µM (inactive); in [12], > 91.6 µM (inactive). Further, the GI50 in [13] was 48.9 µM (inactive); in assay [14] it was 40.2 µM (inactive); in assay [15], 37.8 µM (inactive); in assay [16], 44 µM (inactive); in assay [17] it was > 100 µM (inactive); in assay [18], 8.36 µM (inactive). Besides, the GI50 in assay [19] is > 100 µM (inactive); in [20], 30.3 µM (inactive).
With `N#Cc1c(-c2cccc(Br)c2)cc(-c2ccc(Cl)cc2)nc1N`, the GI50 in assay [1] was 20.3 µM (inactive); in assay [2], 21 µM (inactive); in [3], 46 µM (inactive); in [4], 10.5 µM (inactive); in [5], 31 µM (inactive); in assay [6] it was 19.1 µM (inactive). The GI50 in [7] was 14 µM (inactive); in assay [8] it was 20.9 µM (inactive); in assay [9], 15.8 µM (inactive); in assay [10], 26.2 µM (inactive); in [11], 22.2 µM (inactive); in assay [12], 25.5 µM (inactive). In addition, the GI50 in assay [13] was 15.8 µM (inactive); in assay [14], 11.6 µM (inactive); in assay [15] it was 15.2 µM (inactive); in [16], 16.8 µM (inactive); in assay [17], 18.7 µM (inactive); in assay [18], 19.1 µM (inactive). Besides, the GI50 was 29 µM (inactive) in [19] and 15.3 µM (inactive) in assay [20].
Consider `CN(C)Cc1cc(C(C)(C)C)ccc1-c1ccc(C(C)(C)C)cc1CN(C)C`, for which the GI50 in [1] is > 100 µM (inactive); in assay [2] it was > 100 µM (inactive); in [3], > 100 µM (inactive); in assay [4] it was 62.2 µM (inactive); in [5], > 100 µM (inactive); in assay [6], > 100 µM (inactive). For the same molecule, the GI50 was > 100 µM (inactive) in assay [7]; > 100 µM (inactive) in assay [8]; > 100 µM (inactive) in [9]; 66.7 µM (inactive) in assay [10]; > 100 µM (inactive) in [11]; > 100 µM (inactive) in assay [12]. For the same molecule, the GI50 in [13], in assay [14], in assay [15], in assay [16], in assay [17] and in [18] was > 100 µM (inactive) throughout. In addition, the GI50 in assay [19] and in assay [20] was > 100 µM (inactive) each time.
With `O=C1C(CO)=C(CO)C(=O)c2c(O)ccc(O)c21`, the GI50 in assay [1] was 0.361 µM (active); in assay [2], 1.64 µM (inactive); in [3] it was 1.85 µM (inactive); in [4] it was 2.25 µM (inactive); in assay [5], 0.043 µM (active); in assay [6], 1.45 µM (inactive). Further, the GI50 in assay [7] is 1.68 µM (inactive); in assay [8] it was 1.61 µM (inactive); in assay [9], 0.252 µM (active); in assay [10], 0.118 µM (active); in [11], 1.04 µM (active); in [12], 2.08 µM (inactive). In addition, the GI50 in assay [13] is 0.39 µM (active); in assay [14] it was 1.05 µM (active); in assay [15] it was 0.394 µM (active); in assay [16], 7.23 µM (inactive); in assay [17] it was 2.88 µM (inactive); in assay [18] it was 0.0902 µM (active). Also, the GI50 in assay [19] is 0.363 µM (active); in assay [20], 0.782 µM (active).
In the case of `COC(=O)c1c(C)[nH]c2c1C(=O)C(=O)c1nc(C)c(C)nc1-2`, the GI50 in [1] was 10.4 µM (inactive); in assay [2], 7.52 µM (inactive); in assay [3] it was 6.04 µM (inactive); in assay [4], 8.69 µM (inactive); in [5], 9.23 µM (inactive); in [6] it was 5.85 µM (inactive). For the same molecule, the GI50 in assay [7] was 3.41 µM (inactive); in assay [8], 10.8 µM (inactive); in assay [9], 5.79 µM (inactive); in assay [10] it was 7.48 µM (inactive); in [11], 12.7 µM (inactive); in [12], 11.7 µM (inactive). The GI50 is 1.98 µM (inactive) in assay [13]; 3.86 µM (inactive) in assay [14]; 5.77 µM (inactive) in assay [15]; 3.5 µM (inactive) in [16]; 4.76 µM (inactive) in [17]; 5.33 µM (inactive) in assay [18]. Also, the results for the GI50 in assay [19] and in assay [20] were 0.162 µM (active) and 4.41 µM (inactive), respectively.
Take `CN1CCc2cc3c(c4c2C1C(O)c1ccccc1-4)OCO3` (stereo not given): the GI50 in [1] was 6.21 µM (inactive); in assay [2] it was 3.89 µM (inactive); in assay [3] it was 9.73 µM (inactive); in [4] it was 7.83 µM (inactive); in assay [5] it was 2.23 µM (inactive); in [6] it was 3.19 µM (inactive). Moreover, the GI50 was 6.61 µM (inactive) in [7]; 7.52 µM (inactive) in assay [8]; 4.25 µM (inactive) in assay [9]; 4.31 µM (inactive) in [10]; 6.47 µM (inactive) in assay [11]; 8.24 µM (inactive) in assay [12]. The GI50 in assay [13] was 2.52 µM (inactive); in assay [14], 9.59 µM (inactive); in assay [15] it was 7.98 µM (inactive); in [16], 21.4 µM (inactive); in assay [17], 10.6 µM (inactive); in assay [18], 4.6 µM (inactive). The GI50 was 13 µM (inactive) in [19] and 8.22 µM (inactive) in assay [20].
For the molecule `CCOC(=O)c1c(C)[n+]([O-])c2cc(Cl)c(Cl)cc2[n+]1[O-]`, the GI50 in assay [1] is 28.3 µM (inactive); in assay [2], 14.6 µM (inactive); in assay [3], 16.6 µM (inactive); in assay [4] it was 24.1 µM (inactive); in assay [5], < 0.01 µM (active); in [6], 24.1 µM (inactive). Besides, the GI50 in [7] is 7.6 µM (inactive); in assay [8], 7.89 µM (inactive); in assay [9] it was 15.3 µM (inactive); in assay [10], 32.5 µM (inactive); in assay [11], 23.8 µM (inactive); in assay [12] it was 43.6 µM (inactive). Moreover, the GI50 was 17.2 µM (inactive) in assay [13]; 23.3 µM (inactive) in [14]; 16.7 µM (inactive) in assay [15]; 26.7 µM (inactive) in [16]; 36.8 µM (inactive) in assay [17]; 8.02 µM (inactive) in assay [18]. Also, the results for the GI50 in assay [19] and in [20] were 16 µM (inactive) and 15.8 µM (inactive), respectively.
